Data on 29 compounds can be found in patent US20180251431A1 (VERTEX PHARMACEUTICALS INCORPORATED, priority 2016, published 2018).

The structures appear in SMILES notation. Some results are limits rather than exact numbers.

In one experiment the test system is HEK293 cells. The experiment can be described thus: HEK293 VLCFA-LPC IC50 determination (13C-labeled C26:0 LPC by UHPLC/MS). The class given is cell-based, human. Conditions: Homo sapiens, HEK293, 48 h, average of one or more replicates; 13C-labeled C26:0 LPC, 48 hours; read-out: Average HEK293 IC50. Put shortly: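 Suspension HEK293 cells (final 0.5 million/mL after mixing with equal volume) incubated 48 hours with compound plus 13C-acetate (1.0 mg/mL in added media), shaking at 37° C. Lipids extracted with hexane/isopropanol or methanol, C13:0 LPC standard. UHPLC/MS of 13C-labeled C26:0 LPC (638.500/104.100 m/z); IC50 by four-parameter fit.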
As for `O=C(Nc1ccn(-c2ccccc2)n1)C1(c2ccccc2)CC1CO` (centres unmarked) [Compound 444, 2-(hydroxymethyl)-1-phenyl-N-(1-phenyl-1H-pyrazol-3-yl)cyclopropane-1-carboxamide], the concentration for half-maximal inhibition (IC50) was 0.26 µM. Still for that read-out and setting: under `O=C(Nc1nn(-c2cncc(F)c2)cc1F)C1(c2ccccc2)CC1` [Compound 445, N-[4-fluoro-1-(5-fluoro-3-pyridyl)pyrazol-3-yl]-1-phenyl-cyclopropanecarboxamide] stands 1.4 µM. The same measure, in the same setting: under `COc1cc(-n2ccc(NC(=O)C3(c4ccccc4F)CC3)n2)cnn1` [Compound 447, 1-(2-fluorophenyl)-N-[1-(6-methoxypyridazin-4-yl)pyrazol-3-yl]cyclopropanecarboxamide] stands above 5 µM.

Staying with this experiment, now noted: Homo sapiens, HEK293, HEK293 cells; average of one or more replicates; read-out: Average HEK293 IC50.
As for `Cn1cnc(-n2ccc(NC(=O)C3(c4ccccc4F)CC3)n2)n1` [Compound 425, 1-(2-fluorophenyl)-N-[1-(1-methyl-1,2,4-triazol-3-yl)pyrazol-3-yl]cyclopropanecarboxamide], the IC50 was above 5 µM. On the same count and under the same terms, under `Cn1cncc1-n1ccc(NC(=O)C2(c3ccccc3F)CC2)n1` [Compound 426, 1-(2-fluorophenyl)-N-[1-(3-methylimidazol-4-yl)pyrazol-3-yl]cyclopropanecarboxamide] stands above 2 µM; under `Cn1cnnc1-n1ccc(NC(=O)C2(c3ccccc3F)CC2)n1` [Compound 427, 1-(2-fluorophenyl)-N-[1-(4-methyl-1,2,4-triazol-3-yl)pyrazol-3-yl]cyclopropanecarboxamide], above 2 µM; under `COc1ccc(-n2ccc(NC(=O)C3(c4ccccc4F)CC3)n2)c(OC)c1` [Compound 428], above 5 µM. Still for that read-out and setting: under `COc1cc(F)ccc1-n1ccc(NC(=O)C2(c3ccccc3F)CC2)n1` [Compound 429, N-[1-(4-fluoro-2-methoxy-phenyl)pyrazol-3-yl]-1-(2-fluorophenyl)cyclopropanecarboxamide] stands above 5 µM. Still for that read-out and setting: under `CCOc1ccc(-n2ccc(NC(=O)C3(c4ccccc4F)CC3)n2)cn1` [Compound 430, N-[1-(6-ethoxy-3-pyridyl)pyrazol-3-yl]-1-(2-fluorophenyl)cyclopropanecarboxamide] stands above 5 µM; under `CNc1ncc(-n2ccc(NC(=O)C3(c4ccccc4F)CC3)n2)cc1F` [Compound 431, N-[1-[5-fluoro-6-(methylamino)-3-pyridyl]pyrazol-3-yl]-1-(2-fluorophenyl)cyclopropanecarboxamide], 0.86 µM.

Turning to `[2H]C([2H])([2H])Oc1cc(-n2ccc(NC(=O)C3(c4ccccc4F)CC3)n2)ccn1` [Compound 439, 1-(2-fluorophenyl)-N-[1-[2-(trideuteriomethoxy)-4-pyridyl]pyrazol-3-yl]cyclopropanecarboxamide], the IC50 turned out to be 0.08 µM. The same measure, in the same setting: under `[2H]C([2H])([2H])Oc1ccc(-n2ccc(NC(=O)C3(c4ccccc4F)CC3)n2)cn1` [Compound 440, 1-(2-fluorophenyl)-N-[1-[6-(trideuteriomethoxy)-3-pyridyl]pyrazol-3-yl]cyclopropanecarboxamide] stands 0.052 µM.

`[2H]C([2H])([2H])Oc1ncc(-n2ccc(NC(=O)C3(c4ccccc4F)CC3)n2)cc1F` [Compound 441, 1-(2-fluorophenyl)-N-[1-[5-fluoro-6-(trideuteriomethoxy)-3-pyridyl]pyrazol-3-yl]cyclopropanecarboxamide]: the half-maximal inhibitory concentration (IC50) worked out at 0.044 µM. The same measure, in the same setting: under `COc1ncc(-n2nc(NC(=O)C3(c4ccccc4F)CC3)cc2F)cc1F` [Compound 442, N-[5-fluoro-1-(5-fluoro-6-methoxy-3-pyridyl)pyrazol-3-yl]-1-(2-fluorophenyl)cyclopropanecarboxamide] stands above 5 µM. Still for that read-out and setting: under `O=C(Nc1ccn(-c2ccc(F)cc2F)n1)C1(c2ccccc2F)CC1` [Compound 448, N-[1-(2,4-difluorophenyl)pyrazol-3-yl]-1-(2-fluorophenyl)cyclopropanecarboxamide] stands 0.14 µM; under `CCOc1cc(-n2ccc(NC(=O)C3(c4ccccc4F)CC3)n2)ccn1` [Compound 449, N-[1-(2-ethoxy-4-pyridyl)pyrazol-3-yl]-1-(2-fluorophenyl)cyclopropanecarboxamide], above 5 µM; under `Cc1cc(F)ccc1-n1ccc(NC(=O)C2(c3ncccc3F)CC2)n1` [Compound 450, N-(1-(4-fluoro-2-methylphenyl)-1H-pyrazol-3-yl)-1-(3-fluoropyridin-2-yl)cyclopropane-1-carboxamide], above 5 µM. Still for that read-out and setting: under `Cc1cc(NC(=O)C2(c3ncccc3F)CC2)nn1-c1ccc(F)cc1F` [Compound 451, N-[1-(2,4-difluorophenyl)-5-methyl-pyrazol-3-yl]-1-(3-fluoro-2-pyridyl)cyclopropanecarboxamide] stands 2.4 µM; under `COc1ncc(-n2ccc(NC(=O)C3(c4ncccc4F)CC3)n2)cc1F` [Compound 452, N-[1-(5-fluoro-6-methoxy-3-pyridyl)pyrazol-3-yl]-1-(3-fluoro-2-pyridyl)cyclopropanecarboxamide], 0.054 µM. Take `O=C(Nc1ccn(-c2ncccc2Cl)n1)C1(c2ncccc2F)CC1` [Compound 453]: the IC50 is above 5 µM.

In the case of `COc1ncc(-n2ccc(NC(=O)C3(c4ncccc4F)CC3)n2)cn1` [Compound 454, 1-(3-fluoro-2-pyridyl)-N-[1-(2-methoxypyrimidin-5-yl)pyrazol-3-yl]cyclopropanecarboxamide], the IC50 is above 5 µM. Still for that read-out and setting: under `O=C(Nc1ccn(-c2cncc(Cl)c2)n1)C1(c2ncccc2F)CC1` [Compound 455, N-[1-(5-chloro-3-pyridyl)pyrazol-3-yl]-1-(3-fluoro-2-pyridyl)cyclopropanecarboxamide] stands 0.1 µM; under `O=C(Nc1ccn(-c2ccc(F)cc2)n1)C1(c2ncccc2F)CC1` [Compound 456, N-[1-(4-fluorophenyl)pyrazol-3-yl]-1-(3-fluoro-2-pyridyl)cyclopropanecarboxamide], 0.1 µM. On to `O=C(Nc1ccn(-c2ccc(C(F)(F)F)cc2)n1)C1(c2ncccc2F)CC1` [Compound 457, 1-(3-fluoro-2-pyridyl)-N-[1-[4-(trifluoromethyl)phenyl]pyrazol-3-yl]cyclopropanecarboxamide], for which the IC50 was above 5 µM.

Regarding `O=C(Nc1ccn(-c2cccnn2)n1)C1(c2ncccc2F)CC1` [Compound 458, 1-(3-fluoro-2-pyridyl)-N-(1-pyridazin-3-ylpyrazol-3-yl)cyclopropanecarboxamide], the IC50 was 0.94 µM. On the same count and under the same terms, under `O=C(Nc1ccn(-c2cncnc2)n1)C1(c2ncccc2F)CC1` [Compound 459, 1-(3-fluoro-2-pyridyl)-N-(1-pyrimidin-5-ylpyrazol-3-yl)cyclopropanecarboxamide] stands 0.92 µM; under `O=C(Nc1ccn(-c2ncccc2F)n1)C1(c2ncccc2F)CC1` [Compound 460, 1-(3-fluoro-2-pyridyl)-N-[1-(3-fluoro-2-pyridyl)pyrazol-3-yl]cyclopropanecarboxamide], above 2 µM; under `O=C(Nc1ccn(-c2cc(F)cc(F)c2)n1)C1(c2ncccc2F)CC1` [Compound 461, N-[1-(3,5-difluorophenyl)pyrazol-3-yl]-1-(3-fluoro-2-pyridyl)cyclopropanecarboxamide], 0.076 µM. Same read-out and setting: under `O=C(Nc1cc(F)n(-c2cncc(F)c2)n1)C1(c2ncccc2F)CC1` [Compound 462, N-[5-fluoro-1-(5-fluoro-3-pyridyl)pyrazol-3-yl]-1-(3-fluoro-2-pyridyl)cyclopropanecarboxamide] stands above 5 µM.
